This is an account of results in patent publication US20240360151A1 (SANOFI, priority 2023, published 2024).

The IC50 is the concentration needed to halve the response being measured.

The target of one test is T1, NLRP3 inflammasome (Homo sapiens, UniProt Q96P20).
T1 construct: endogenous in cells; host or cells: THP-1 monocytic cells
As to the kind of experiment: IL-1β secretion assay (NLRP3 IC50) in LPS-primed, nigericin-activated THP-1 cells, HTRF. Format: cell-based. The following applies: monocytic THP-1 cells; LPS 10 ng/mL 3 h priming, then compound + nigericin 10 μM 2 h; relative IC50, 10 concentrations, geometric mean. The essentials:
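IL-1β in supernatant read by HTRF after 2 h co-incubation of compound (0.1% DMSO, 10 concentrations, 1:3 series) with nigericin at 10 μM final, following 3 h LPS (10 ng/mL) priming of THP-1 monocytes at 37° C. Inhibition normalised to unactivated and no-compound controls; geometric-mean relative IC50 from 4-parameter logistic model.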

Test [1] has as its system NF-kB pathway (TNF-α secretion by THP-1 cells). As to the kind of experiment: TNF-α secretion assay in LPS-stimulated THP-1 cells, Lumit immunoassay. Format: cell-based, human. The settings on record: Homo sapiens, THP-1, 3 h, monocytic THP-1 cells, LPS 10 ng/mL, relative IC50, 10 concentrations, geometric mean. How it is done: Monocytic THP-1 cells were maintained in RPMI 1640 media (Gibco 21875)+10% FBS, (Gibco 10500)+1% penicillin/streptomycin (Gibco 15140-122). Cells were then plated at 40,000 cells per well in 384-well cell culture plates (Corning 3542) and maintained with RPMI1640 (Gibco 11835)+5% FBS, (Gibco 10500). Experimental compounds were prepared and added as described above. TNF-α secretion was triggered by the addition of 10 ng/mL LPS (invivoGen, tlrl-3pelps) and cells were incubated for 3 hours. TNF-α levels were monitored directly in the cells plate using an Lumit assay (Lumit TNFa-Human Immunoassay—Promega W6051) according to manufacturers' instructions.
Data were expressed as percentage of inhibition (I %) as compared to a maximum signal control containing no small molecule (I %=0%) according to the formula: 1%=(1−((Sample−Min))/((Max−Min)))×100, where: • Sample: Signal obtained in the presence of each compound tested, • Max: Maximum signal in the absence of compound added, • Min: Minimum or background signal obtained in the absence of activation signal.
Relative IC50 (IC50 rel) were obtained from a dose response curve with 10 concentrations. Final IC50 rels are expressed as the geometric mean.
Relative IC50 values were estimated with Biost@t-SPEED v2.4 internal software based on SAS system using the 4-parameter logistic model according to Ratkovsky and Reedy (D. A. Ratkovsky, T. J. Reedy, Choosing near-linear parameters in the four parameters logistic model radioligands and related assays. Biometrics, 42 (1986), 575-582): Y=A+C/((1+exp(−B*(log(X)−M)))), where: • A: Lower asymptote (BOTTOM), • A+C: Upper asymptote (TOP), • M: the logarithm of the concentration estimated at the inflexion point (the logarithm of the relative IC50), • B: Slope at the inflexion point of the curve.

T1 sequence (Q96P20 whole entry): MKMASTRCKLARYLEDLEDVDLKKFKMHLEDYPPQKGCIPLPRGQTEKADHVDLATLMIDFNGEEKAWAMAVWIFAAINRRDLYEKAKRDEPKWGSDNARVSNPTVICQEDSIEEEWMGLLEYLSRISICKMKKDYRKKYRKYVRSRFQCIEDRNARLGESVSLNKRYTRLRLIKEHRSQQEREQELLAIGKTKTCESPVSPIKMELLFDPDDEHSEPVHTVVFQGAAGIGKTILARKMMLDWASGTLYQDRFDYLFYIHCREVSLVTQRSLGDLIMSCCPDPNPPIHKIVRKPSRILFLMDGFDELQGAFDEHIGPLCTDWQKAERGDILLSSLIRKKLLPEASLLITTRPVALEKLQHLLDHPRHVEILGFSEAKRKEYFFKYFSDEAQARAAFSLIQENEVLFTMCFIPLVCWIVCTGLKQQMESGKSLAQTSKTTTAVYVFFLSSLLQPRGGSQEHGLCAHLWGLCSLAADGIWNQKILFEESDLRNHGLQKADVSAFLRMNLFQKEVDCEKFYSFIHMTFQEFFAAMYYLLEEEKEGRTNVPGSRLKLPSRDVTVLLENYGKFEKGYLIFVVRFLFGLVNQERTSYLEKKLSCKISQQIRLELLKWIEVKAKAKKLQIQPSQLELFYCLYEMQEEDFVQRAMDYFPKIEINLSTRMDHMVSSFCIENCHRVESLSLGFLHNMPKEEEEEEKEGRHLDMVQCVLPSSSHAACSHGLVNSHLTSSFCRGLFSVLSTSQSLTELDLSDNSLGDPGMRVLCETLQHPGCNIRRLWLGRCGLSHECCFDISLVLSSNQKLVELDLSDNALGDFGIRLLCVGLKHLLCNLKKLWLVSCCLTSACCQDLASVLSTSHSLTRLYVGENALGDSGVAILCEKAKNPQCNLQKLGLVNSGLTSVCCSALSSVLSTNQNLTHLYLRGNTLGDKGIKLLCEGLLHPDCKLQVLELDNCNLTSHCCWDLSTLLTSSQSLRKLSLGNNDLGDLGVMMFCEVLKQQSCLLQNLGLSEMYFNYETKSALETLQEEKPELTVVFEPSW

As to `Cc1cccc(O)c1-c1ccc(N2CC[C@@H]3CCN(C)C[C@@H]32)nn1` (racemic) [Example 385, 3-methyl-2-[6-[rac-(3aS,7aR)-6-methyl-3,3a,4,5,7,7a-hexahydro-2H-pyrrolo[2,3-c]pyridin-1-yl]pyridazin-3-yl]phenol], the IC50 on NLRP3 inflammasome is 2 nM; in test [1], above 10000 nM.

For the compound `CCc1cccc(O)c1-c1ccc(N2CC[C@@H]3CCN(C)C[C@@H]32)nn1` (racemic) [Example 388, 3-ethyl-2-[6-[rac-(3aS,7aR)-6-methyl-3,3a,4,5,7,7a-hexahydro-2H-pyrrolo[2,3-c]pyridin-1-yl]pyridazin-3-yl]phenol], the half-inhibitory concentration (IC50) is 1 nM on NLRP3 inflammasome and above 10000 nM in test [1].

Consider `CN1CC[C@H]2CCN(c3ccc(-c4c(O)cccc4C(F)(F)F)nn3)[C@H]2C1` (racemic) [Example 389, 2-[6-[rac-(3aS,7aR)-6-methyl-3,3a,4,5,7,7a-hexahydro-2H-pyrrolo[2,3-c]pyridin-1-yl]pyridazin-3-yl]-3-(trifluoromethyl)phenol], for which the IC50 is 2 nM at NLRP3 inflammasome and above 10000 nM in test [1].

Consider `Cc1cc(C)c(-c2ccc(N3CCO[C@H]4CCN(C5CCC5)C[C@H]43)nn2)c(O)c1` (single isomer, unassigned) [Example 10], for which the IC50 was 178 nM on NLRP3 inflammasome and above 10000 nM in test [1].

Turning to `Cc1cc(C)c(-c2ccc(N3CCO[C@@H]4CCN(C5CCC5)C[C@@H]43)nn2)c(O)c1` (single isomer, unassigned) [Example 11], the IC50 was 3 nM at NLRP3 inflammasome and above 10000 nM in test [1].

For `Cc1cc(C(F)(F)F)cc(O)c1-c1ccc(N2CCO[C@H]3CCN(C4CCC4)C[C@H]32)nn1` (single isomer, unassigned) [Example 12], the IC50 at NLRP3 inflammasome is 171 nM; in test [1] it was above 10000 nM.

With `Cc1cc(C(F)(F)F)cc(O)c1-c1ccc(N2CCO[C@@H]3CCN(C4CCC4)C[C@@H]32)nn1` (single isomer, unassigned) [Example 13], the IC50 on NLRP3 inflammasome is 2 nM; in test [1] it was above 10000 nM.

In the case of `Cc1cc(C(F)(F)F)cc(O)c1-c1ccc(N2CCOC(C(C)(C)O)C2)nn1` (single isomer, unassigned) [Example 53, 2-[6-[2-(1-hydroxy-1-methyl-ethyl)morpholin-4-yl]pyridazin-3-yl]-3-methyl-5-(trifluoromethyl)phenol], the IC50 on NLRP3 inflammasome was 275 nM; in test [1] it was above 10000 nM.

In the case of `Cc1cc(C(F)(F)F)cc(O)c1-c1ccc(N2CCO[C@H](CN(C)C)C2)nn1` (single isomer, unassigned) [Example 59, 2-[6-[-2-[(dimethylamino)methyl]morpholin-4-yl]pyridazin-3-yl]-3-methyl-5-(trifluoromethyl)phenol], the IC50 at NLRP3 inflammasome was 203 nM; in test [1], above 10000 nM.

`Cc1cc(C(F)(F)F)cc(O)c1-c1ccc(N2CCOC(CN(C)C)C2)nn1` (single isomer, unassigned) [Example 60, 2-[6-[-2-[(dimethylamino)methyl]morpholin-4-yl]pyridazin-3-yl]-3-methyl-5-(trifluoromethyl)phenol]: the IC50 is 386 nM at NLRP3 inflammasome and above 10000 nM in test [1].

For the compound `Cc1cc(C)c(-c2ccc(N3C[C@H](CO)CC3=O)nn2)c(O)c1` (single isomer, unassigned) [Example 137], the IC50 at NLRP3 inflammasome is 411 nM; in test [1] it was above 10000 nM.

For `Cc1cc(C)c(-c2ccc(N3C[C@@H](CO)CC3=O)nn2)c(O)c1` (single isomer, unassigned) [Example 138], the values for the IC50 (at NLRP3 inflammasome; in test [1]) were 441 nM and above 10000 nM, respectively.

Regarding `Cc1cc(C)c(-c2ccc(N3CC[C@H](CO)C3=O)nn2)c(O)c1` (single isomer, unassigned) [Example 139], the IC50 was 235 nM on NLRP3 inflammasome and above 10000 nM in test [1].

For the compound `Cc1cc(C)c(-c2ccc(N3CC[C@@H](CO)C3=O)nn2)c(O)c1` (single isomer, unassigned) [Example 140], the results for the IC50 (on NLRP3 inflammasome; in test [1]) were 210 nM and above 10000 nM, respectively.

Take `CNC(=O)C[C@@H]1CN(c2ccc(-c3c(C)cc(C)cc3O)nn2)CCO1` (single isomer, unassigned) [Example 142]: the IC50 at NLRP3 inflammasome is 360 nM; in test [1], above 10000 nM.

On to `CNC(=O)C[C@H]1CN(c2ccc(-c3c(C)cc(C)cc3O)nn2)CCO1` (single isomer, unassigned) [Example 143], for which the IC50 was 221 nM on NLRP3 inflammasome and above 10000 nM in test [1].

Turning to `Cc1cc(C)c(-c2ccc(N3CCO[C@H](CC(N)=O)C3)nn2)c(O)c1` (single isomer, unassigned) [Example 146], the IC50 on NLRP3 inflammasome is 242 nM; in test [1], above 10000 nM.

With `Cc1cc(C)c(-c2ccc(N3CCO[C@@H](CC(N)=O)C3)nn2)c(O)c1` (single isomer, unassigned) [Example 147], the IC50 at NLRP3 inflammasome was 575 nM; in test [1], above 10000 nM.

With `CCC(=O)C1CN(c2ccc(-c3c(C)cc(C)cc3O)nn2)CCO1` (single isomer, unassigned) [Example 157], the IC50 at NLRP3 inflammasome was 314 nM; in test [1] it was above 10000 nM.

For `Cc1cc(C)c(-c2ccc(N3CCOC([C@@H](C)O)C3)nn2)c(O)c1` (single isomer, unassigned) [Example 180], the IC50 is 473 nM on NLRP3 inflammasome and above 10000 nM in test [1].

In the case of `Cc1cc(C)c(-c2ccc(N3CCO[C@H](CCO)C3)nn2)c(O)c1` (single isomer, unassigned) [Example 233], the IC50 on NLRP3 inflammasome is 164 nM; in test [1], above 10000 nM.

For the compound `Cc1cc(C)c(-c2ccc(N3CCO[C@@H](CCO)C3)nn2)c(O)c1` (single isomer, unassigned) [Example 234], the IC50 at NLRP3 inflammasome was 355 nM; in test [1] it was above 10000 nM.

For `Oc1cc(Cl)cc(Cl)c1-c1ccc(N2CCO[C@@H](CF)C2)nn1` (single isomer, unassigned) [Example 237], the IC50 on NLRP3 inflammasome came to 24 nM; in test [1] it was 4120 nM.

Take `Oc1cc(Cl)cc(Cl)c1-c1ccc(N2CCO[C@H](CF)C2)nn1` (single isomer, unassigned) [Example 238]: the IC50 on NLRP3 inflammasome worked out at 47 nM; in test [1], 4290 nM.

Consider `Cc1cc(C(F)(F)F)cc(O)c1-c1ccc(N2CCO[C@H]3CCNC[C@H]32)nn1` (single isomer, unassigned) [Example 251], for which the values for the IC50 (at NLRP3 inflammasome; in test [1]) were 21 nM and above 10000 nM, respectively.

Consider `Cc1cc(C(F)(F)F)cc(O)c1-c1ccc(N2CCO[C@@H]3CCNC[C@@H]32)nn1` (single isomer, unassigned) [Example 252], for which the results for the IC50 (at NLRP3 inflammasome; in test [1]) were 461 nM and above 10000 nM, respectively.

Regarding `CCN1CC[C@@H]2OCCN(c3ccc(-c4c(C)cc(C(F)(F)F)cc4O)nn3)[C@@H]2C1` (single isomer, unassigned) [Example 255], the IC50 is 249 nM on NLRP3 inflammasome and above 10000 nM in test [1].

`CCN1CC[C@H]2OCCN(c3ccc(-c4c(C)cc(C(F)(F)F)cc4O)nn3)[C@H]2C1` (single isomer, unassigned) [Example 256]: the IC50 was 1 nM on NLRP3 inflammasome and above 10000 nM in test [1].

As to `Cc1cc(C(F)(F)F)cc(O)c1-c1ccc(N2CCO[C@@H]3CCN(C)C[C@@H]32)nn1` (single isomer, unassigned) [Example 260], the IC50 at NLRP3 inflammasome was 180 nM; in test [1], above 10000 nM.

For `Cc1cc(C(F)(F)F)cc(O)c1-c1ccc(N2CCO[C@H]3CCN(C)C[C@H]32)nn1` (single isomer, unassigned) [Example 261], the IC50 is 1 nM at NLRP3 inflammasome and above 10000 nM in test [1].

Consider `CC(=O)N1CC[C@H]2OCCN(c3ccc(-c4c(C)cc(C(F)(F)F)cc4O)nn3)[C@H]2C1` (single isomer, unassigned) [Example 262], for which the IC50 is 17 nM at NLRP3 inflammasome and above 10000 nM in test [1].

On to `CC(=O)N1CC[C@@H]2OCCN(c3ccc(-c4c(C)cc(C(F)(F)F)cc4O)nn3)[C@@H]2C1` (single isomer, unassigned) [Example 263], for which the results for the IC50 (on NLRP3 inflammasome; in test [1]) were 180 nM and above 10000 nM, respectively.

In the case of `Cc1cc(C(F)(F)F)cc(O)c1-c1ccc(N2CC[C@H]3CN(C)C[C@H]32)nn1` (single isomer, unassigned) [Example 270], the results for the IC50 (on NLRP3 inflammasome; in test [1]) were 493 nM and above 10000 nM, respectively.
